# Values of other authors in US12171220B2, “High osmolarity antimicrobial composition containing one or more organic solvents” (Next Science IP Holdings Pty Ltd, priority 2013, dated 2024).
# Details: alcohols, Table 2; room temperature
row,SMILES,~δp (MPa^1/2)
1,OCc1ccc(Cl)cc1 [4-chlorobenzyl alcohol],~7.5
2,"C=CCO [Example 2-propenol, 2-propenol]",~10.8
3,CCC(CC)CO [2-ethyl-1-butanol],~4.3
4,CO [methanol],~12.3
5,OC1CCCCC1 [cyclohexanol],~4.1
6,CCO [ethanol],~8.8
7,"CC(C)O [Example 2-propanol, 2-propanol]",~6.1
8,"CCCO [Example 1-propanol, 1-propanol]",~6.8
9,CC(C)(C)O [t-butyl alcohol],~5.1
10,"CCCC(C)O (centres unmarked) [Example 2-pentanol, 2-pentanol]",~6.4
11,OC1C=CCC1 (centres unmarked) [2-cyclopentenyl alcohol],~7.6
12,"OCC(Cl)CCl (centres unmarked) [2,3-dichloropropanol]",~9.2

# Other lines, results leading:
row,~δp (MPa^1/2),SMILES
1,~3.3,CCCCC(CC)CO (centres unmarked) [2-ethyl-hexanol]
2,~5.7,"CCCCO [Example 1-butanol, 1-butanol]"
3,~7.3,CC(C)CCCCCO [isooctyl alcohol]
4,~10.0,"CCCCCCCCCCO [Example 1-decanol, 1-decanol]"
5,~10.0,"CCCCCCCCC(C)O (centres unmarked) [Example 2-decanol, 2-decanol]"
6,~3.3,CCCCCCCCO [octanol]
7,~4.5,"CCCCCO [Example 1-pentanol, 1-pentanol]"
8,~2.6,CCCCCCCC/C=C\CCCCCCCCO [oleyl alcohol]

# Same assay, conditions: glycol ethers, Table 1; room temperature
row,SMILES,~δp (MPa^1/2)
1,OCCOc1ccccc1 [ethylene glycol monophenyl ether],~5.7
2,COCCO [ethylene glycol monomethyl ether],~9.2
3,CC(C)COCC(C)O (centres unmarked) [propylene glycol monoisobutyl ether],~4.7
4,CCOCCO [ethylene glycol monoethyl ether],~9.2
5,CC(C)OCCO [ethylene glycol monoisopropyl ether],~8.2
6,CCOCC(C)O (centres unmarked) [propylene glycol monoethyl ether],~6.5
7,CC(O)COC(C)C (centres unmarked) [propylene glycol monoisopropyl ether],~6.1
8,COCC(C)O (centres unmarked) [propylene glycol monomethyl ether],~6.3
9,COCCOCCO [diethylene glycol monomethyl ether],~7.8

# Other lines, results leading:
row,~δp (MPa^1/2),SMILES
1,~5.1,CCCCOCCO [ethylene glycol monobutyl ether]
2,~9.2,CCOCCOCCO [diethylene glycol monoethyl ether]
3,~7.6,COCCOCCOCCO [triethylene glycol monomethyl ether]
4,~8.2,CCCOCCO [ethylene glycol monopropyl ether]
5,~4.5,CCCCOCC(C)O (centres unmarked) [propylene glycol monobutyl ether]
6,~3.1,CCCCCCCC/C=C\CCCCCCCCOCCOCCOCCO [triethylene glycol monooleyl ether]
7,~5.9,OCCOCc1ccccc1 [ethylene glycol monobenzyl ether]
8,~7.0,CCCCOCCOCCO [diethylene glycol mono-n-butyl ether]
9,~5.6,CCCOCC(C)O (centres unmarked) [propylene glycol monopropyl ether]

# Same assay, conditions: solvents added in Examples 65-80, text
row,SMILES,δp
1,Clc1ccccc1 [chlorobenzene],4.3
2,CCOC(C)=O [ethyl acetate],5.3

# Same assay, conditions: water
row,SMILES,δp
1,O [water],≈ 16.0 MPa^1/2
